Assays:
Human recombinant MMP-1 = target: T1, Human recombinant MMP-1 (Homo sapiens, UniProt P03956); assay: In vitro MMP inhibition, Ki determination (fluorogenic substrate II); type: biochemical
T1 construct: made in house; host or cells: MMP-1-transfected HT-1080 cells (spent media)
T1 sequence (P03956 100-469): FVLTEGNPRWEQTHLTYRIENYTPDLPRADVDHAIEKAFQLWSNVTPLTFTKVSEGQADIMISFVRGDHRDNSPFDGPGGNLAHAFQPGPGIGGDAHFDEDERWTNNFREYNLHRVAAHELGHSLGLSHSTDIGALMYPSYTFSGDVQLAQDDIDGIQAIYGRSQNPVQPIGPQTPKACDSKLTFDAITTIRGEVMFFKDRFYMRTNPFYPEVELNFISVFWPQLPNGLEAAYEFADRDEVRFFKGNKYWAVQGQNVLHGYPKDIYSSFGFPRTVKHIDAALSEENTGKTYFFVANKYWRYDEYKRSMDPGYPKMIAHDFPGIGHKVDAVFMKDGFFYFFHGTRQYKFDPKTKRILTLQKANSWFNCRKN
Summary of the method: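 Activated human recombinant MMP-1 (APMA- or trypsin-activated; proenzyme from transfected HT-1080 cells) incubated 1 hr at room temperature with 4 μM MCA/Dpa fluorogenic substrate II at or below Km in Tris buffer pH 7.5 with CaCl2. Fluorescence ex 330/em 420 nm; Ki from Morrison-equation non-linear regression, uncorrected for substrate.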

Human recombinant MMP-13 = target: T2, Human recombinant MMP-13 (Homo sapiens, UniProt P45452); assay: In vitro MMP inhibition, IC50 determination (fluorogenic substrate I); type: biochemical; conditions: value outside parenthesis
T2 construct: made in house; host or cells: baculovirus / insect cells
Summary of the method: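 Fluorescence at 415 nm (excitation 328 nm) reports Gly-Leu cleavage of 4 μM quenched methoxycoumarin peptide substrate I. Human recombinant MMP-13, activated by trypsin or APMA, was incubated at room temperature with varied inhibitor concentrations in pH 7.5 Tris/NaCl/CaCl2 buffer; IC50 derived from reduced fluorescence.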

[1] = substrate (II) 4 μM, 1 hr room temperature, apparent Ki, values in parenthesis

Row | Compound | Ki (Human recombinant MMP-1; value in parentheses) [µM] | further results
1 | COCCN1CCC(C(=O)NO)(S(=O)(=O)c2ccc(OCCc3cccc(-c4ccccc4)c3)cc2)CC1 [Example 45] | – | Ki (Human recombinant MMP-1; [1]): > 10 µM
2 | COCCN1CCC(C(=O)NO)(S(=O)(=O)c2ccc(OCCCc3cccc(-c4ccc(Cl)cc4)c3)cc2)CC1 [Example 50] | – | Ki (Human recombinant MMP-1; [1]): > 10 µM
3 | COCCN1CCC(C(=O)NO)(S(=O)(=O)c2ccc(OCCCc3cccc(-c4ccc(F)c(F)c4)c3)cc2)CC1 [Example 52] | – | Ki (Human recombinant MMP-1; [1]): > 10 µM
4 | O=C(NO)C1(S(=O)(=O)c2ccc(OCCCc3nc(-c4ccc(OC(F)(F)F)cc4)no3)cc2)CCN(Cc2ccccc2)CC1 [Example 93] | – | IC50 (Human recombinant MMP-13): 0.0155 µM; Ki (Human recombinant MMP-1; value in parenthesis): > 10 µM
5 | CC(C)c1ccc(-c2cccc(CCOc3ccc(S(=O)(=O)C4(C(=O)NO)CCOCC4)cc3)c2)cc1 [Example 109] | – | IC50 (Human recombinant MMP-13): 0.152 µM; Ki (Human recombinant MMP-1; value in parenthesis): > 10 µM
6 | O=C(NO)C1(S(=O)(=O)c2ccc(OCCc3cccc(-c4cc(F)cc(F)c4)c3)cc2)CCOCC1 [Example 110] | – | IC50 (Human recombinant MMP-13): 0.0076 µM; Ki (Human recombinant MMP-1; value in parenthesis): > 10 µM
7 | O=C(NO)C1(S(=O)(=O)c2ccc(OCCc3cccc(-c4cccc(F)c4)c3)cc2)CCOCC1 [Example 111] | – | IC50 (Human recombinant MMP-13): 0.002 µM; Ki (Human recombinant MMP-1; value in parenthesis): > 10 µM
8 | O=C(NO)C1(S(=O)(=O)c2ccc(OCCc3cccc(-c4ccc(OC(F)(F)F)cc4)c3)cc2)CCOCC1 [Example 112] | – | IC50 (Human recombinant MMP-13): 0.0379 µM; Ki (Human recombinant MMP-1; value in parenthesis): > 10 µM
9 | O=C(NO)C1(S(=O)(=O)c2ccc(OCCc3cccc(-c4ccccc4Cl)c3)cc2)CCOCC1 [Example 114] | – | IC50 (Human recombinant MMP-13): 0.0052 µM; Ki (Human recombinant MMP-1; value in parenthesis): > 10 µM
10 | Cc1ccccc1-c1cccc(CCOc2ccc(S(=O)(=O)C3(C(=O)NO)CCOCC3)cc2)c1 [Example 116] | – | IC50 (Human recombinant MMP-13): 0.0112 µM; Ki (Human recombinant MMP-1; value in parenthesis): > 10 µM
11 | Cc1ccc(-c2cccc(CCOc3ccc(S(=O)(=O)C4(C(=O)NO)CCOCC4)cc3)c2)cc1C [Example 117] | – | IC50 (Human recombinant MMP-13): 0.016 µM; Ki (Human recombinant MMP-1; value in parenthesis): > 10 µM
12 | Cc1cc(-c2cccc(CCOc3ccc(S(=O)(=O)C4(C(=O)NO)CCOCC4)cc3)c2)ccc1Cl [Example 118] | – | IC50 (Human recombinant MMP-13): 0.0298 µM; Ki (Human recombinant MMP-1; value in parenthesis): > 10 µM
13 | COc1ccc(-c2cccc(CCOc3ccc(S(=O)(=O)C4(C(=O)NO)CCOCC4)cc3)c2)cc1C [Example 119] | – | IC50 (Human recombinant MMP-13): 0.0183 µM; Ki (Human recombinant MMP-1; value in parenthesis): > 10 µM
14 | O=C(NO)C1(S(=O)(=O)c2ccc(OCCc3cccc(-c4ccc(Cl)c(Cl)c4)c3)cc2)CCOCC1 [Example 121] | – | IC50 (Human recombinant MMP-13): 0.0216 µM; Ki (Human recombinant MMP-1; value in parenthesis): > 10 µM
15 | O=C(NO)C1(S(=O)(=O)c2ccc(OCCc3cccc(-c4ccc(Cl)cc4Cl)c3)cc2)CCOCC1 [Example 124] | – | IC50 (Human recombinant MMP-13): 0.0219 µM; Ki (Human recombinant MMP-1; value in parenthesis): > 10 µM
16 | O=C(NO)C1(S(=O)(=O)c2ccc(OCCc3cccc(-c4cc(Cl)cc(Cl)c4)c3)cc2)CCOCC1 [Example 126] | – | IC50 (Human recombinant MMP-13): 0.349 µM; Ki (Human recombinant MMP-1; value in parenthesis): > 10 µM
17 | O=C(NO)C1(S(=O)(=O)c2ccc(OCCCc3ccc(F)c(-c4ccccc4)c3)cc2)CCOCC1 [Example 504] | > 10 | –
18 | CCCC(=O)CCCOc1ccc(S(=O)(=O)C2(C(=O)NO)CCOCC2)cc1 [Example 505] | 0.85 | –
19 | CCCCC(=O)CCCOc1ccc(S(=O)(=O)C2(C(=O)NO)CCOCC2)cc1 [Example 506] | 1.47 | –
20 | CCCCCCCOc1ccc(S(=O)(=O)C2(C(=O)NO)CCOCC2)cc1 [Example 507] | 3.59 | –
21 | COCCN1CCC(C(=O)NO)(S(=O)(=O)c2ccc(OCCCc3cncc(-c4ccccc4)c3)cc2)CC1 [Example 508] | 4.85 | –

Row | Compound | Ki (Human recombinant MMP-1; value in parentheses) [µM] | further results
22 | COCCN1CCC(C(=O)NO)(S(=O)(=O)c2ccc(OCCCc3cccc(-c4cccnc4)c3)cc2)CC1 [Example 509] | > 10 | –
23 | COCCN1CCC(C(=O)NO)(S(=O)(=O)c2ccc(OCCCc3cccc(-c4cccs4)c3)cc2)CC1 [Example 510] | > 10 | –
24 | COCCN1CCC(C(=O)NO)(S(=O)(=O)c2ccc(OCCCc3cccc(-c4cccc(F)c4)c3)cc2)CC1 [Example 511] | > 10 | –
25 | COCCN1CCC(C(=O)NO)(S(=O)(=O)c2ccc(OCCCc3cccc(-c4ccccc4F)c3)cc2)CC1 [Example 512] | > 10 | –
26 | COCCN1CCC(C(=O)NO)(S(=O)(=O)c2ccc(OCCCc3cccc(-c4ccc(F)cc4F)c3)cc2)CC1 [Example 513] | > 10 | –
27 | COCCN1CCC(C(=O)NO)(S(=O)(=O)c2ccc(OCCCc3cccc(-c4ccc(C#N)cc4)c3)cc2)CC1 [Example 514] | > 10 | –
28 | CCN1CCC(C(=O)NO)(S(=O)(=O)c2ccc(OCCCc3cccc(-c4ccc(Cl)cc4)c3)cc2)CC1 [Example 526] | > 10 | –
29 | Cc1ccc(NC(=O)CCCOc2ccc(S(=O)(=O)C3(C(=O)NO)CCOCC3)cc2)cc1I [Example 527] | 5.1 | –
30 | CCC(=O)c1cccc(CCCOc2ccc(S(=O)(=O)C3(C(=O)NO)CCOCC3)cc2)c1 [Example 528] | > 10 | –
31 | O=C(NO)C1(S(=O)(=O)c2ccc(OCCCc3cccc(-c4ccc(O)cc4)c3)cc2)CCOCC1 [Example 529] | > 10 | –
32 | O=C(NO)C1(S(=O)(=O)c2ccc(OCCCc3cccc(-c4cccc(O)c4)c3)cc2)CCOCC1 [Example 530] | > 10 | –
33 | O=C(NO)C1(S(=O)(=O)c2ccc(OCCc3ccc(-c4ccc(O)cc4)cc3)cc2)CCOCC1 [Example 531] | > 10 | –
34 | O=C(NO)C1(S(=O)(=O)c2ccc(OCCc3ccc(-c4cccc(O)c4)cc3)cc2)CCOCC1 [Example 532] | > 10 | –
35 | CCCCc1ccc(CCCOc2ccc(S(=O)(=O)C3(C(=O)NO)CCOCC3)cc2)cn1 [Example 533] | > 10 | –
36 | CCCc1ccc(CCCOc2ccc(S(=O)(=O)C3(C(=O)NO)CCOCC3)cc2)cn1 [Example 534] | > 10 | –
37 | CCc1ccc(CCCOc2ccc(S(=O)(=O)C3(C(=O)NO)CCOCC3)cc2)cn1 [Example 535] | > 10 | –
38 | CN1CCC(C(=O)NO)(S(=O)(=O)c2ccc(SCCNC(=O)c3cc4ccccc4o3)cc2)CC1 [Example 536] | > 10 | –
39 | COCCN1CCC(C(=O)NO)(S(=O)(=O)c2ccc(OCCc3cccc(-c4ccncc4)c3)cc2)CC1 [Example 538] | > 10 | –
40 | COCCN1CCC(C(=O)NO)(S(=O)(=O)c2ccc(OCCc3cccc(-c4cccnc4)c3)cc2)CC1 [Example 539] | 9.13 | –
41 | COCCN1CCC(C(=O)NO)(S(=O)(=O)c2ccc(OCCc3cccc(-c4ccccc4F)c3)cc2)CC1 [Example 540] | > 10 | –
42 | O=C(NCCSc1ccc(S(=O)(=O)C2(C(=O)NO)CCN(C3CC3)CC2)cc1)c1nc2ccccc2s1 [Example 541] | > 10 | –

Row | Compound | Ki (Human recombinant MMP-1; value in parentheses) [µM] | further results
43 | O=C(NCCSc1ccc(S(=O)(=O)C2(C(=O)NO)CCN(C3CC3)CC2)cc1)c1cc2ccccc2o1 [Example 542] | > 10 | –
44 | COCCN1CCC(C(=O)NO)(S(=O)(=O)c2ccc(OCCc3ccc(-c4ccc(C#N)cc4)cc3)cc2)CC1 [Example 543] | > 10 | –
45 | COCCN1CCC(C(=O)NO)(S(=O)(=O)c2ccc(OCCc3cccc(-c4ccc(F)cc4)c3)cc2)CC1 [Example 544] | > 10 | –
46 | COCCN1CCC(C(=O)NO)(S(=O)(=O)c2ccc(OCCc3cccc(-c4cccc(F)c4)c3)cc2)CC1 [Example 545] | > 10 | –
47 | COCCN1CCC(C(=O)NO)(S(=O)(=O)c2ccc(OCCc3cccc(-c4ccc(F)cc4F)c3)cc2)CC1 [Example 546] | > 10 | –
48 | COCCN1CCC(C(=O)NO)(S(=O)(=O)c2ccc(OCCc3cccc(-c4ccc(Cl)cc4)c3)cc2)CC1 [Example 547] | > 10 | –
49 | COCCN1CCC(C(=O)NO)(S(=O)(=O)c2ccc(OCCc3cccc(-c4ccccn4)c3)cc2)CC1 [Example 548] | > 10 | –
50 | COCCN1CCC(C(=O)NO)(S(=O)(=O)c2ccc(OCCc3cccc(-c4ccc(F)c(F)c4)c3)cc2)CC1 [Example 549] | > 10 | –
51 | CCCc1ccc(COc2ccc(S(=O)(=O)C3(C(=O)NO)CCOCC3)cc2)cn1 [Example 550] | > 10 | –
52 | CCCCc1ccc(COc2ccc(S(=O)(=O)C3(C(=O)NO)CCOCC3)cc2)cn1 [Example 551] | > 10 | –
53 | CCc1ccc(COc2ccc(S(=O)(=O)C3(C(=O)NO)CCOCC3)cc2)cn1 [Example 552] | > 10 | –
54 | COCCN1CCC(C(=O)NO)(S(=O)(=O)c2ccc(OCCNC(=O)c3cc4ccccc4o3)cc2)CC1 [Example 553] | > 10 | –
55 | O=C(NO)C1(S(=O)(=O)c2ccc(OCCOc3cncnc3)cc2)CCOCC1 [Example 554] | > 10 | –
56 | O=C(NO)C1(S(=O)(=O)c2ccc(OCCCOCc3ccncc3)cc2)CCOCC1 [Example 555] | > 10 | –
57 | O=C(NO)C1(S(=O)(=O)c2ccc(OCCc3ccccn3)cc2)CCOCC1 [Example 556] | 8.97 | –
58 | O=C(NO)C1(S(=O)(=O)c2ccc(OCCc3cccnc3)cc2)CCOCC1 [Example 557] | > 10 | –
59 | O=C(NO)C1(S(=O)(=O)c2ccc(OCCCOc3cncnc3)cc2)CCOCC1 [Example 559] | > 10 | –
60 | O=C(NO)C1(S(=O)(=O)c2ccc(OCCCOc3cccnc3)cc2)CCOCC1 [Example 560] | > 10 | –
61 | O=C(NCCOc1ccc(S(=O)(=O)C2(C(=O)NO)CCOCC2)cc1)c1c[nH]c2ccccc12 [Example 562] | 2.74 | –
62 | O=C(NCCSc1ccc(S(=O)(=O)C2(C(=O)NO)CCOCC2)cc1)c1nc2ccccc2s1 [Example 598] | > 10 | –
63 | C#Cc1ccc(-c2cccc(CCCOc3ccc(S(=O)(=O)C4(C(=O)NO)CCN(CCOC)CC4)cc3)c2)cc1 [Example 646] | > 10 | –

Source: patent US20040024024A1, “Aromatic sulfone hydroxamates and their use as protease inhibitors” (priority 2001, published 2004)
